Reference: PubChem BioAssay (NCI)
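Each compound was tested at five concentrations against cells in 96-well plates for 48 hours. The concentration for 50% growth inhibition is given as GI50. TGI denotes the concentration required for complete inhibition of growth.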

Assays:
Experiment in all cases: NCI-60 cell line screen, 48 h
SF-539 CNS = system: SF-539 CNS
SNB-75 CNS = system: SNB-75 CNS
HCT-15 colon = system: HCT-15 colon
OVCAR-5 ovarian = system: OVCAR-5 ovarian
CAKI-1 renal = system: CAKI-1 renal
IGROV1 ovarian = system: IGROV1 ovarian
SN12C renal = system: SN12C renal
SW-620 colon = system: SW-620 colon
SK-MEL-2 melanoma = system: SK-MEL-2 melanoma
HCC-2998 colon = system: HCC-2998 colon
UACC-62 melanoma = system: UACC-62 melanoma
RXF 393 renal = system: RXF 393 renal
SF-295 CNS = system: SF-295 CNS
LOX IMVI melanoma = system: LOX IMVI melanoma
UO-31 renal = system: UO-31 renal
A549 NSCLC = system: A549 NSCLC
TK-10 renal = system: TK-10 renal
KM12 colon = system: KM12 colon
OVCAR-4 ovarian = system: OVCAR-4 ovarian
PC-3 prostate = system: PC-3 prostate
MDA-MB-435 = system: MDA-MB-435
MCF7 breast = system: MCF7 breast
OVCAR-3 ovarian = system: OVCAR-3 ovarian
K-562 leukemia = system: K-562 leukemia
M14 melanoma = system: M14 melanoma
U251 CNS = system: U251 CNS
MOLT-4 leukemia = system: MOLT-4 leukemia
ACHN renal = system: ACHN renal

COc1ccc2c(c1)c(-c1cc(N)n3nc(-c4cn(C)c5ccc(OC)cc45)cc3n1)cn2C
GI50 (SF-539 CNS): 1780 nM
TGI (SF-539 CNS): 3.27 µM
GI50 (SNB-75 CNS): 2130 nM
TGI (SNB-75 CNS): 6.27 µM
GI50 (HCT-15 colon): 1150 nM
TGI (HCT-15 colon): 2780 nM
GI50 (OVCAR-5 ovarian): 1840 nM
TGI (OVCAR-5 ovarian): 3.58 µM
GI50 (CAKI-1 renal): 1790 nM
TGI (CAKI-1 renal): 3.46 µM
GI50 (IGROV1 ovarian): 2000 nM
TGI (IGROV1 ovarian): 4.14 µM
GI50 (SN12C renal): 2020 nM
TGI (SN12C renal): 3.98 µM
GI50 (SW-620 colon): 1020 nM
TGI (SW-620 colon): 2410 nM
GI50 (SK-MEL-2 melanoma): 1830 nM
TGI (SK-MEL-2 melanoma): 3.46 µM
GI50 (HCC-2998 colon): 1870 nM
TGI (HCC-2998 colon): 3.32 µM
GI50 (UACC-62 melanoma): 1960 nM
TGI (UACC-62 melanoma): 3.87 µM
GI50 (RXF 393 renal): 1870 nM
TGI (RXF 393 renal): 3.57 µM
GI50 (SF-295 CNS): 1880 nM
TGI (SF-295 CNS): 3.44 µM
GI50 (LOX IMVI melanoma): 2040 nM
TGI (LOX IMVI melanoma): 3.64 µM
GI50 (UO-31 renal): 1660 nM
TGI (UO-31 renal): 3.19 µM
GI50 (A549 NSCLC): 1700 nM
TGI (A549 NSCLC): 3.31 µM
GI50 (TK-10 renal): 1810 nM
TGI (TK-10 renal): 3.6 µM
GI50 (KM12 colon): 1850 nM
TGI (KM12 colon): 3.51 µM
GI50 (OVCAR-4 ovarian): 2040 nM
TGI (OVCAR-4 ovarian): 4.27 µM
GI50 (PC-3 prostate): 1840 nM
TGI (PC-3 prostate): 3.93 µM
GI50 (MDA-MB-435): 1910 nM
TGI (MDA-MB-435): 3.74 µM
GI50 (MCF7 breast): 1250 nM
TGI (MCF7 breast): 2740 nM
GI50 (OVCAR-3 ovarian): 1750 nM
TGI (OVCAR-3 ovarian): 3.17 µM
GI50 (K-562 leukemia): 392 nM
TGI (K-562 leukemia): > 100 µM
GI50 (M14 melanoma): 1740 nM
TGI (M14 melanoma): 3.42 µM
GI50 (U251 CNS): 1820 nM
TGI (U251 CNS): 3.49 µM
GI50 (MOLT-4 leukemia): 1950 nM
TGI (MOLT-4 leukemia): 4.88 µM
GI50 (ACHN renal): 1790 nM
TGI (ACHN renal): 3.25 µM
